According to ChEMBL document CHEMBL1146706, “New orally active PDE4 inhibitors with therapeutic potential” (Bioorg Med Chem Lett, 2004):
One block for each molecule: values may come before it.

Columns and labels:
Phosphodiesterase 4 = Phosphodiesterase 4 (Homo sapiens, UniProt P27815+Q08499+Q07343+Q08493); assay: Inhibition of phosphodiesterase 4 (PDE4) from U937 cells; assay type: cell-based; conditions: u-937
Mustela putorius furo [1] = assay: Emetic effect in fasted ferrets at 10 mg/kg peroral dose (n=3); assay type: functional; conditions: route oral
Mustela putorius furo [2] = assay: Emetic effect in fasted ferrets at 3 mg/kg peroral dose (n=2); assay type: functional; conditions: route oral
Mustela putorius furo [3] = assay: Emetic effect in fasted ferrets at 30 mg/kg peroral dose (n=2); assay type: functional; conditions: route oral
Cavia porcellus [4] = assay: In vivo inhibition of SRS-A mediated bronchoconstriction in guinea pig at 10 mg/kg peroral dose; assay type: functional; conditions: Lung, route oral
Homo sapiens = species: Homo sapiens; assay: Inhibition of TNF-alpha production in human whole blood; assay type: functional, organism-based
Rattus norvegicus [5] = species: Rattus norvegicus; assay: Inhibition of gastric emptying in rats by peroral dose; assay type: functional; conditions: Stomach, po, read-out: ID50 (the source's name)
Rattus norvegicus [6] = assay: Inhibition of lipopolysaccharide-induced tumor necrosis factor alpha production in rats by peroral administration (n=7); assay type: functional; conditions: po, read-out: ID50 (the source's name)
Rattus norvegicus [7] = assay: Inhibition of lipopolysaccharide-induced tumor necrosis factor alpha production in rats at 10 mg/kg peroral dose (n=7); assay type: functional; conditions: route oral
Mustela putorius furo [8] = assay: Emetic effect in fasted ferrets at 10 mg/kg peroral dose (n=2); assay type: functional; conditions: route oral
Cavia porcellus [9] = assay: In vivo inhibition of slow reacting substance of anaphylaxis (SRS-A) mediated bronchoconstriction in guinea pig; assay type: functional, organism-based; conditions: Lung
Rattus norvegicus [10] = assay: Inhibition of gastric emptying in rats […] peroral dose; assay type: functional; conditions: Stomach, route oral, read-out: ID50 (the source's name)
Rattus norvegicus [11] = assay: Inhibition of lipopolysaccharide-induced tumor necrosis factor alpha production in rats at 3 mg/kg peroral dose (n=7); assay type: functional; conditions: route oral
Rattus norvegicus [12] = assay: Inhibition of lipopolysaccharide-induced tumor necrosis factor alpha production in rats by peroral administration; assay type: functional; conditions: po, read-out: ID50 (the source's name)

Structure (SMILES): COC(=O)N1CC[C@H](Oc2cccc(Nc3c(C(N)=O)cnc4c3c(C)nn4C)c2)C1
No. of ferrets (Mustela putorius furo [1]): 0
No. of ferrets (Mustela putorius furo [2]): 0
No. of ferrets (Mustela putorius furo [3]): 2
inhibition in vivo at 10 mg/kg (Cavia porcellus [4]): 45%
IC50 (Homo sapiens): 4800 nM
IC50 (Phosphodiesterase 4): 10 nM
ED50 (Rattus norvegicus [5]): 15 mg/kg
ED50 (Rattus norvegicus [6]): 1 mg/kg

Structure (SMILES): COc1ccc(Nc2c(C(N)=O)cnc3c2c(C)nn3C)cc1
IC50 (Phosphodiesterase 4): > 100 nM

Structure (SMILES): Cc1nn(C)c2ncc(C(N)=O)c(Nc3cccc(O)c3)c12
IC50 (Phosphodiesterase 4): 97 nM
inhibition in vivo at 10 mg/kg (Rattus norvegicus [7]): 40%

Structure (SMILES): Cc1nn(C)c2ncc(C(N)=O)c(Nc3cccc(O[C@H]4CCN(C(=O)OC(C)(C)C)C4)c3)c12
IC50 (Phosphodiesterase 4): > 300 nM

Structure (SMILES): Cc1nn(C)c2ncc(C(N)=O)c(Nc3ccccc3)c12
IC50 (Phosphodiesterase 4): 36 nM
inhibition in vivo at 10 mg/kg (Rattus norvegicus [7]): 48%

Structure (SMILES): COc1cccc(Nc2c(C(N)=O)cnc3c2c(C)nn3C)c1
No. of ferrets (Mustela putorius furo [8]): 0
No. of ferrets (Mustela putorius furo [2]): 0
No. of ferrets (Mustela putorius furo [3]): 1
IC50 (Cavia porcellus [9]): 6800 nM
IC50 (Homo sapiens): 3000 nM
IC50 (Phosphodiesterase 4): 5 nM
ED50 (Rattus norvegicus [10]): 23 mg/kg
ED50 (Rattus norvegicus [6]): 2.4 mg/kg

Structure (SMILES): Cc1nn(C)c2ncc(C(N)=O)c(Nc3cccc(C#N)c3)c12
IC50 (Phosphodiesterase 4): 85 nM
inhibition in vivo at 3 mg/kg (Rattus norvegicus [11]): 2%

Structure (SMILES): COc1ccccc1Nc1c(C(N)=O)cnc2c1c(C)nn2C
IC50 (Phosphodiesterase 4): 76 nM
inhibition in vivo at 10 mg/kg (Rattus norvegicus [7]): 68%

Structure (SMILES): Cc1nn(C)c2ncc(C(N)=O)c(Nc3cccc(O[C@H]4CCN(S(C)(=O)=O)C4)c3)c12
IC50 (Phosphodiesterase 4): 250 nM

Structure (SMILES): COc1ccc([C@]2(C#N)CC[C@@H](C(=O)O)CC2)cc1OC1CCCC1 [CILOMILAST]
IC50 (Cavia porcellus [9]): 4500 nM
ED50 (Rattus norvegicus [5]): 5.7 mg/kg
ED50 (Rattus norvegicus [12]): 1.7 mg/kg

Second part, led by results:

IC50 (Phosphodiesterase 4): > 100 nM
Structure (SMILES): Cc1nn(C)c2ncc(C(N)=O)c(Nc3cccc(OC4CCCCC4)c3)c12

IC50 (Phosphodiesterase 4): > 300 nM
Structure (SMILES): CC(=O)N1CC[C@H](Oc2cccc(Nc3c(C(N)=O)cnc4c3c(C)nn4C)c2)C1

IC50 (Phosphodiesterase 4): > 100 nM
Structure (SMILES): Cc1nn(C)c2ncc(C(N)=O)c(Nc3cccc(OC4CCCC4)c3)c12
inhibition in vivo at 10 mg/kg (Rattus norvegicus [7]): 39%

IC50 (Phosphodiesterase 4): > 300 nM
Structure (SMILES): Cc1nn(C)c2ncc(C(N)=O)c(Nc3cccc(O[C@H]4CCNC4)c3)c12

IC50 (Phosphodiesterase 4): > 100 nM
Structure (SMILES): Cc1nn(C)c2ncc(C(N)=O)c(Nc3cccc(OC4CCC4)c3)c12
